These results are taken from PubChem BioAssay (NCI).

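In this assay, cells in 96-well plates receive the compound at five concentrations for 48 hours. Endpoints are linearly interpolated between the surrounding concentrations. GI50 is the concentration that inhibits growth by half. TGI: concentration producing complete growth inhibition.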 Bounds are passed on as bounds.

Some test systems named below: SNB-19 CNS; SR leukemia; OVCAR-3 ovarian; HCT-15 colon; NCI-H522 lung; NCI-H23 lung; MDA-MB-231 breast; CAKI-1 renal; MDA-N; MCF7 breast.
Holding throughout (assay): NCI tumour cell line growth inhibition, 48 h

For the molecule `C[C@]12CCC(=O)C=C1CC[C@@H]1C2CC[C@@]2(C)C1CC[C@@H]2OC(=O)C12OC1CCC2=O` (stereo partly specified), the TGI in the assay with SNB-19 CNS was 44.3 µM; with SR leukemia, 53.4 µM; in the assay on OVCAR-3 ovarian, 32.9 µM; with HCT-15 colon, 30.7 µM; in the assay with NCI-H522 lung, 23.1 µM; in the assay with NCI-H23 lung, 33.6 µM.
In the case of `COc1cc2c(cc1OC)-c1[nH]c3ccc([N+](=O)[O-])cc3c1CC(=O)N2`, the TGI in the assay on SNB-19 CNS is over 100 µM; in the assay on OVCAR-3 ovarian it was 1.61 µM; in the assay with MDA-MB-231 breast it was over 100 µM; in the assay with HCT-15 colon, over 100 µM; in the assay with CAKI-1 renal it was over 26.9 µM; with MDA-N it was over 100 µM. Further, the TGI in the assay on NCI-H23 lung was over 100 µM; in the assay on MCF7 breast it was 34.9 µM.
On to `CCOC(=O)[C@@]12NN=N[C@@H]1[C@H]1CO[C@H](c3ccccc3)N1C2=O`, for which the TGI in the assay with SNB-19 CNS was 25 µM; in the assay on OVCAR-3 ovarian, 24.5 µM; in the assay with MDA-MB-231 breast, 30.6 µM; with HCT-15 colon it was 32.9 µM; in the assay on NCI-H522 lung, 13.1 µM; in the assay on CAKI-1 renal, 24.8 µM. Also, the TGI was 25.7 µM in the assay with MDA-N, 32.8 µM in the assay on NCI-H23 lung and 25.3 µM in the assay on MCF7 breast.
Regarding `O=c1[nH]c(-c2ccc(Cl)cc2)cc2ccsc12`, the TGI with SNB-19 CNS is 7.71 µM; in the assay on SR leukemia, 12.9 µM; with OVCAR-3 ovarian, 4.26 µM; with HCT-15 colon, over 100 µM; in the assay with NCI-H522 lung, over 100 µM; with CAKI-1 renal, 7.04 µM. For the same molecule, the TGI with NCI-H23 lung and in the assay with MCF7 breast was over 100 µM throughout.
With `COC(=O)CC1NC(=O)C1C(C)(OC)OC` (stereo unspecified), the TGI with SNB-19 CNS, with SR leukemia, in the assay on OVCAR-3 ovarian, in the assay with HCT-15 colon and in the assay with NCI-H23 lung was over 100 µM each time.
`O=C1[C@H](O)[C@@H]2CCC[C@@]23CCCN13`: the TGI with SR leukemia, in the assay on OVCAR-3 ovarian, in the assay on HCT-15 colon, in the assay on NCI-H522 lung, in the assay on CAKI-1 renal and with MDA-N was over 100 µM throughout. For the same molecule, the TGI in the assay with NCI-H23 lung and with MCF7 breast was over 100 µM throughout.
`COc1cc(O)c2c(=O)c(OC)c(-c3ccc(OC)c(OC)c3)oc2c1.[Sn]`: the GI50 with SNB-19 CNS, in the assay with OVCAR-3 ovarian, with MDA-MB-231 breast and in the assay on MCF7 breast was over 100 µM each time. Further, the TGI in the assay with SNB-19 CNS, in the assay with OVCAR-3 ovarian, in the assay with MDA-MB-231 breast, in the assay with NCI-H522 lung, with CAKI-1 renal and with MDA-N was over 100 µM throughout. In the assay with MCF7 breast, this molecule displayed a TGI of over 100 µM.
In the case of `Brc1ccc(C[N+]23CN4CN(CN(C4)C2)C3)cc1`, the TGI with SNB-19 CNS was over 100 µM; in the assay with OVCAR-3 ovarian, over 100 µM; in the assay on HCT-15 colon, 69 µM; in the assay on NCI-H522 lung it was 32.1 µM; with NCI-H23 lung, over 100 µM.
With `CN(C)CCNC(=O)c1cccc2[nH]c(-c3ccc(Cl)cc3)nc12`, the TGI in the assay with SNB-19 CNS turned out to be 31.5 µM; with OVCAR-3 ovarian it was 27.7 µM; in the assay with HCT-15 colon, 19.9 µM; with NCI-H522 lung, 19.9 µM; in the assay on CAKI-1 renal, 12.8 µM; in the assay on NCI-H23 lung it was 21.5 µM. The molecule further yielded a TGI in the assay on MCF7 breast of 15.8 µM.
As to `COc1ccc(C=NCCCN=Cc2ccc(OC)cc2O)c(O)c1`, the TGI is over 100 µM in the assay with SNB-19 CNS; over 100 µM in the assay on SR leukemia; 51.2 µM in the assay on OVCAR-3 ovarian; over 100 µM in the assay with MDA-MB-231 breast; over 100 µM in the assay with HCT-15 colon; over 100 µM in the assay on NCI-H522 lung. Moreover, the TGI in the assay on NCI-H23 lung and in the assay on MCF7 breast was over 100 µM in each case.
In the case of `O=C(NCCC1CN(S(=O)(=O)C(F)(F)F)c2ccccc21)OCc1ccccc1` (stereo unspecified), the TGI with SNB-19 CNS, with SR leukemia, in the assay on OVCAR-3 ovarian, in the assay with MDA-MB-231 breast, with HCT-15 colon and in the assay on NCI-H522 lung was over 100 µM throughout. Also, the TGI in the assay with CAKI-1 renal, in the assay with NCI-H23 lung and with MCF7 breast was over 100 µM in each case.
As to `CNC(=O)c1cc(Oc2cccc3nc(NC(=O)Nc4ccc(F)cc4F)ccc23)ccn1`, the GI50 with SR leukemia was 0.41 µM; in the assay on MDA-MB-231 breast it was 1.59 µM; in the assay with HCT-15 colon it was 0.302 µM; with CAKI-1 renal, 1.61 µM; in the assay on NCI-H23 lung, 2.4 µM; in the assay on MCF7 breast, 1.66 µM. For the same molecule, the TGI in the assay with SR leukemia, in the assay on MDA-MB-231 breast, with HCT-15 colon, in the assay on CAKI-1 renal, in the assay with NCI-H23 lung and in the assay on MCF7 breast was over 50 µM throughout.
Regarding `CC(C)(/C=N/O)/[N+]([O-])=C/c1ccccc1`, the TGI in the assay with SNB-19 CNS, in the assay on OVCAR-3 ovarian, with MDA-MB-231 breast, in the assay on HCT-15 colon, in the assay on CAKI-1 renal and in the assay on MDA-N was over 100 µM each time. In addition, the TGI with NCI-H23 lung and with MCF7 breast was over 100 µM throughout.
With `Cc1cc(=O)[nH]c(NNC(C#N)c2ccc(N(C)C)cc2)n1` (stereo unspecified), the TGI with SR leukemia, in the assay with OVCAR-3 ovarian, in the assay on HCT-15 colon, in the assay with NCI-H522 lung, in the assay on CAKI-1 renal and with NCI-H23 lung was over 100 µM in each case.
In the case of `COc1cccc(/C=N/NC(=O)CN(C)C)c1O`, the TGI in the assay on SNB-19 CNS, in the assay with OVCAR-3 ovarian, in the assay with HCT-15 colon, in the assay on NCI-H522 lung, in the assay with CAKI-1 renal and with MDA-N was over 100 µM in each case. Further, the TGI with NCI-H23 lung and with MCF7 breast was over 100 µM each time.
With `O=C1NC2OC(CO)C(O)C(O)C2O1` (stereo unspecified), the TGI in the assay with SNB-19 CNS, with SR leukemia, in the assay on OVCAR-3 ovarian, in the assay with HCT-15 colon, with NCI-H522 lung and in the assay with CAKI-1 renal was over 100 µM in each case. In the assay on NCI-H23 lung, this molecule gave a TGI of over 100 µM.
In the case of `CCC1OC2C(CC=C(C)C)=C3OC(C)(O)C(C)(CC)C(=O)C3=C3OC(=O)C=C1C32` (stereo unspecified), the TGI in the assay on SNB-19 CNS was over 100 µM; in the assay with MDA-MB-231 breast, 41.1 µM; with HCT-15 colon it was over 100 µM; in the assay on CAKI-1 renal it was over 100 µM; with NCI-H23 lung it was 70.7 µM; in the assay with MCF7 breast, over 100 µM.
